Test results from ChEMBL document CHEMBL1201862, “PubChem BioAssay data set” (2004).
Where “and” joins values, the source holds several entries; their conditions need not be identical. Equal entries are not always repeated.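 Tested at 5 concentrations; 48 h exposure; 96-well plates; endpoints linearly interpolated, else capped at highest concentration. GI50 = concentration required for 50% inhibition of growth.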 Calls of active or inactive are those of the source. Cut-off read from the data, not from the text of the source: active = GI50 up to about 1.1 µM and inactive = higher.

How the values were obtained:
Assay in all cases: growth of human tumour cells (NCI), 48 h
M14 = test system: M14
NCI-H23 = test system: NCI-H23
SF-539 = test system: SF-539
HOP-92 = test system: HOP-92
RPMI-8226 = test system: RPMI-8226
HT-29 = test system: HT-29
EKVX = test system: EKVX
NCI-H460 = test system: NCI-H460
786-0 = test system: 786-0
UACC-257 = test system: UACC-257
RXF 393 = test system: RXF 393
HOP-62 = test system: HOP-62
SK-OV-3 = test system: SK-OV-3
NCI-H522 = test system: NCI-H522
SK-MEL-28 = test system: SK-MEL-28
A549 = test system: A549
KM-20L2 = test system: KM-20L2
SNB-75 = test system: SNB-75
DMS-273 = test system: DMS-273
OVCAR-4 = test system: OVCAR-4
HCC 2998 = test system: HCC 2998
SNB-19 = test system: SNB-19
ACHN = test system: ACHN
SF-295 = test system: SF-295
CCRF-CEM = test system: CCRF-CEM
UACC-62 = test system: UACC-62
HCT-15 = test system: HCT-15
A498 = test system: A498
HOP-18 = test system: HOP-18
DLD-1 = test system: DLD-1
OVCAR-5 = test system: OVCAR-5
SN12C = test system: SN12C
IGROV-1 = test system: IGROV-1
OVCAR-3 = test system: OVCAR-3
KM12 = test system: KM12
K562 = test system: K562
MOLT-4 = test system: MOLT-4
NCI-H226 = test system: NCI-H226
UO-31 = test system: UO-31
SK-MEL-5 = test system: SK-MEL-5
COLO 205 = test system: COLO 205
Malme-3M = test system: Malme-3M
OVCAR-8 = test system: OVCAR-8
HL-60 = test system: HL-60
HCT-116 = test system: HCT-116
TK-10 = test system: TK-10
M19-MEL = test system: M19-MEL
LXFL 529 = test system: LXFL 529
SF-268 = test system: SF-268
U-251 = test system: U-251
DMS-114 = test system: DMS-114
SK-MEL-2 = test system: SK-MEL-2
SNB-78 = test system: SNB-78
SW-620 = test system: SW-620
LOX IMVI = test system: LOX IMVI
XF498 = test system: XF498
SR = test system: SR
BT-549 = test system: BT-549
PC-3 = test system: PC-3
Hs-578T = test system: Hs-578T
NCI/ADR-RES = test system: NCI/ADR-RES
MCF7 = test system: MCF7

CCOC(=O)/C(O)=C(/c1n[nH]c(=O)c2ccccc12)[N+](=O)[O-]
GI50 (M14): > 100 µM (inactive) | GI50 (NCI-H23): > 100 µM (inactive) | GI50 (SF-539): > 100 µM (inactive) | GI50 (HOP-92): > 100 µM (inactive) | GI50 (RPMI-8226): > 100 µM (inactive) | GI50 (HT-29): > 100 µM (inactive) | GI50 (EKVX): 70.8 µM (inactive) | GI50 (NCI-H460): > 100 µM (inactive) | GI50 (786-0): > 100 µM (inactive) | GI50 (UACC-257): > 100 µM (inactive) | GI50 (RXF 393): > 100 µM (inactive) | GI50 (HOP-62): > 100 µM (inactive) | GI50 (SK-OV-3): > 100 µM (inactive) | GI50 (NCI-H522): > 100 µM (inactive) | GI50 (SK-MEL-28): > 100 µM (inactive) | GI50 (A549): > 100 µM (inactive) | GI50 (KM-20L2): > 100 µM (inactive) | GI50 (SNB-75): > 100 µM (inactive) | GI50 (DMS-273): > 100 µM (inactive) | GI50 (OVCAR-4): > 100 µM (inactive) | GI50 (HCC 2998): > 100 µM (inactive) | GI50 (SNB-19): > 100 µM (inactive) | GI50 (ACHN): > 100 µM (inactive) | GI50 (SF-295): > 100 µM (inactive) | GI50 (CCRF-CEM): > 100 µM (inactive) | GI50 (UACC-62): > 100 µM (inactive) | GI50 (HCT-15): > 100 µM | GI50 (A498): > 100 µM (inactive) | GI50 (HOP-18): > 100 µM (inactive) | GI50 (DLD-1): > 100 µM (inactive) | GI50 (OVCAR-5): > 100 µM (inactive) | GI50 (SN12C): > 100 µM (inactive) | GI50 (IGROV-1): > 100 µM (inactive) | GI50 (OVCAR-3): > 100 µM (inactive) | GI50 (KM12): > 100 µM (inactive) | GI50 (K562): > 100 µM (inactive) | GI50 (MOLT-4): > 100 µM (inactive) | GI50 (NCI-H226): > 100 µM (inactive) | GI50 (UO-31): > 100 µM (inactive) | GI50 (SK-MEL-5): > 100 µM (inactive) | GI50 (COLO 205): > 100 µM (inactive) | GI50 (Malme-3M): > 100 µM (inactive) | GI50 (OVCAR-8): > 100 µM (inactive) | GI50 (HL-60): > 100 µM (inactive) | GI50 (HCT-116): > 100 µM (inactive) | GI50 (TK-10): > 100 µM (inactive) | GI50 (M19-MEL): > 100 µM (inactive) | GI50 (LXFL 529): > 100 µM (inactive) | GI50 (SF-268): > 100 µM (inactive) | GI50 (U-251): > 100 µM (inactive) | GI50 (DMS-114): > 100 µM (inactive) | GI50 (SK-MEL-2): > 100 µM (inactive) | GI50 (SNB-78): > 100 µM (inactive) | GI50 (SW-620): > 100 µM (inactive) | GI50 (LOX IMVI): > 100 µM (inactive)

O=c1c2cc3c(=O)n(CCc4ccccc4CO)c(=O)c3cc2c(=O)n1CCc1ccccc1CO
GI50 (NCI-H23): > 100 µM (inactive) | GI50 (SF-539): > 100 µM (inactive) | GI50 (HT-29): > 100 µM (inactive) | GI50 (NCI-H460): > 100 µM (inactive) | GI50 (UACC-257): > 100 µM (inactive) | GI50 (RXF 393): > 100 µM (inactive) | GI50 (SK-OV-3): > 100 µM (inactive) | GI50 (NCI-H522): > 100 µM (inactive) | GI50 (SK-MEL-28): > 100 µM (inactive) | GI50 (A549): > 100 µM (inactive) | GI50 (SNB-75): > 100 µM (inactive) | GI50 (DMS-273): > 100 µM (inactive) | GI50 (OVCAR-4): > 100 µM (inactive) | GI50 (SNB-19): > 100 µM (inactive) | GI50 (ACHN): > 100 µM (inactive) | GI50 (SF-295): 46.6 µM (inactive) | GI50 (CCRF-CEM): > 100 µM (inactive) | GI50 (UACC-62): > 100 µM (inactive) | GI50 (HCT-15): > 100 µM | GI50 (A498): > 100 µM (inactive) | GI50 (DLD-1): > 100 µM (inactive) | GI50 (SN12C): > 100 µM (inactive) | GI50 (IGROV-1): > 100 µM (inactive) | GI50 (XF498): > 100 µM (inactive) | GI50 (OVCAR-3): > 100 µM (inactive) | GI50 (KM12): > 100 µM (inactive) | GI50 (K562): > 100 µM (inactive) | GI50 (MOLT-4): > 100 µM (inactive) | GI50 (NCI-H226): > 100 µM (inactive) | GI50 (UO-31): > 100 µM (inactive) | GI50 (SK-MEL-5): > 100 µM (inactive) | GI50 (Malme-3M): > 100 µM (inactive) | GI50 (OVCAR-8): > 100 µM (inactive) | GI50 (HL-60): > 100 µM (inactive) | GI50 (HCT-116): > 100 µM (inactive) | GI50 (TK-10): > 100 µM (inactive) | GI50 (M19-MEL): > 100 µM (inactive) | GI50 (LXFL 529): > 100 µM (inactive) | GI50 (SF-268): > 100 µM (inactive) | GI50 (U-251): > 100 µM (inactive) | GI50 (DMS-114): > 100 µM (inactive) | GI50 (SK-MEL-2): > 100 µM (inactive) | GI50 (SNB-78): > 100 µM (inactive) | GI50 (SW-620): > 100 µM (inactive) | GI50 (LOX IMVI): > 100 µM (inactive)

C=CN1C(=O)OC(c2ccccc2)C1c1ccccc1 (stereo not given)
GI50 (SF-539): 61.1 µM (inactive) and > 31.6 µM (inactive) | GI50 (SR): > 100 µM (inactive) | GI50 (DMS-273): 57.4 µM (inactive) and > 31.6 µM (inactive) | GI50 (SF-295): > 100 µM (inactive) and > 99.3 µM (inactive) | GI50 (OVCAR-5): > 100 µM (inactive) | GI50 (XF498): > 10 µM (inactive) | GI50 (K562): > 31.6 µM (inactive) and 40.5 µM (inactive) | GI50 (HL-60): > 31.6 µM (inactive) and 45.2 µM (inactive) | GI50 (U-251): 54.7 µM (inactive) and > 31.6 µM (inactive) | GI50 (SW-620): 40.7 µM (inactive) and > 31.6 µM (inactive) | GI50 (LOX IMVI): 49.1 µM (inactive) and > 78.5 µM (inactive)

COc1ccc2[nH]c3c(C)c4cc[n+](C)cc4c(C)c3c2c1
GI50 (NCI-H23): 0.521 µM (active) | GI50 (SF-539): 0.24 µM (active) | GI50 (HOP-92): 2.27 µM (inactive) | GI50 (HT-29): 3.23 µM (inactive) | GI50 (BT-549): 1.57 µM (inactive) | GI50 (EKVX): 0.738 µM (active) | GI50 (NCI-H460): 1.26 µM (inactive) | GI50 (UACC-257): 8.41 µM (inactive) | GI50 (RXF 393): 0.798 µM (active) | GI50 (HOP-62): 0.358 µM (active) | GI50 (SK-OV-3): 7.74 µM (inactive) | GI50 (NCI-H522): 0.548 µM (active) | GI50 (SK-MEL-28): 1.32 µM (inactive) | GI50 (PC-3): 4.55 µM (inactive) | GI50 (KM-20L2): 3.3 µM (inactive) | GI50 (SNB-75): 0.121 µM (active) | GI50 (DMS-273): 0.838 µM (active) | GI50 (OVCAR-4): 1.91 µM (inactive) | GI50 (HCC 2998): 1.92 µM (inactive) | GI50 (SNB-19): 0.16 µM (active) | GI50 (ACHN): 7.24 µM (inactive) | GI50 (SF-295): 0.173 µM (active) | GI50 (CCRF-CEM): 1.14 µM (inactive) | GI50 (UACC-62): 2.16 µM (inactive) | GI50 (Hs-578T): 0.125 µM (active) | GI50 (HOP-18): 3.95 µM (inactive) | GI50 (DLD-1): 1.06 µM (active) | GI50 (OVCAR-5): 6.67 µM (inactive) | GI50 (SN12C): 0.0834 µM (active) | GI50 (IGROV-1): 1.96 µM (inactive) | GI50 (OVCAR-3): 2.82 µM (inactive) | GI50 (KM12): 0.964 µM (active) | GI50 (NCI/ADR-RES): 19.3 µM (inactive) | GI50 (NCI-H226): 0.232 µM (active) | GI50 (UO-31): 38.5 µM (inactive) | GI50 (SK-MEL-5): 1.18 µM (inactive) | GI50 (Malme-3M): 0.733 µM (active) | GI50 (OVCAR-8): 0.169 µM (active) | GI50 (HL-60): 14.9 µM (inactive) | GI50 (HCT-116): 1.39 µM (inactive) | GI50 (M19-MEL): 0.661 µM (active) | GI50 (SF-268): 0.148 µM (active) | GI50 (U-251): 0.105 µM (active) | GI50 (DMS-114): 0.219 µM (active) | GI50 (SK-MEL-2): 2.87 µM (inactive) | GI50 (SNB-78): 0.406 µM (active) | GI50 (MCF7): 2.16 µM (inactive) | GI50 (SW-620): 0.587 µM (active) | GI50 (LOX IMVI): 6.21 µM (inactive)
